{"source": "paper PMC3130785", "about": "“Small Compound 6-O-Angeloylplenolin Induces Mitotic Arrest and Exhibits Therapeutic Potentials in Multiple Myeloma” (PLoS ONE, 2011)", "key": {"[1]": {"tested_on": "pJak2 and pStat3", "experiment": "Western blotting, IL-6 stimulation", "assay_type": "cell-based, human", "conditions": "MM.1S", "protocol": "(§1) Cell pellets were lysed in RIPA buffer containing 50 mM Tris pH 8.0, 150 mM NaCl, 0.1% SDS, 0.5% deoxycholate, 1% NP-40, 1 mM DTT, 1 mM NaF, 1 mM sodium vanadate, and protease inhibitors cocktail (Sigma). For immunoprecipitations, cells were lysed on ice for 15 minutes in RIPA buffer. Lysates were centrifuged. The supernatant was incubated with indicated antibodies overnight, after which protein A/G Plus beads (Santa Cruz Biotechnology) were added and incubated for 3 h. The beads were washed 4 times in RIPA buffer. Then the beads were resuspended in 1× sample buffer and boiled for 3 min. Protein extracts were quantitated and loaded on 8% to 12% sodium dodecyl sulfate polyacrylamide gel, electrophoresed, and transferred to a nitrocellulose membrane (Whatman). The membrane was incubated with primary antibody, washed, and incubated with horseradish peroxidase (HRP)–conjugated secondary antibody (Pierce). Detection was performed by using a chemiluminescent western detection kit (Cell Signaling). […]\n(§2) Figure 5 6-OAP overcomes the protective effects of IL-6, IGF-I and BMSCs on MM cells. […] Cell proliferation was assessed by MTT assay. […] Cell proliferation was assessed by MTT assay. *p<.01,** p<.05. […]"}, "[2]": {"tested_on": "human colorectum, liver, stomach, lung, and skin tumor cells", "design": "method as in PMID 20183316", "conditions": "preliminary data; cited from earlier work"}, "[3]": {"tested_on": "PDK-1", "experiment": "Western blotting, IGF-I stimulation", "assay_type": "cell-based, human", "conditions": "MM.1S; IGF-I 50 ng/ml", "protocol": "as §1, §2"}, "[4]": {"tested_on": "pAkt", "experiment": "Western blotting, IGF-I stimulation", "assay_type": "cell-based, human", "conditions": "MM.1S; 6-OAP 7.5 µM for 12 h; IGF-I 50 ng/ml", "protocol": "as §1, §2"}, "[5]": {"tested_on": "U266, RPMI 8226, MM.1S, and MM.1R cells", "experiment": "MTT assay, MM cell lines together", "assay_type": "cell-based", "conditions": "Homo sapiens, range over the four MM cell lines", "protocol": "U266, RPMI 8226 cells (1×10^4), primary CD138+ cells, PBMCs (5×10^4), and BMSCs (1×10^4) were cultured in 96-well dishes and incubated without or with 6-OAP at indicated concentration for 48 h. MM.1S and MM.1R cells (2×10^4) were seeded into 96-well dishes and pre-cultured for 24 h, then treated with 6-OAP for 48 h. Cell proliferation was determined by MTT assay. Cell viability was estimated by trypan blue dye exclusion."}}, "data": [{"smiles": "CC=C(C)C(=O)OC1C2C(CC(C)C3C=CC(=O)C31C)OC(=O)C2C", "note": "(stereo not drawn) [6-OAP, 6-O-angeloylplenolin]", "values": [{"measurement": "pStat3 in cells upon IL-6", "setting": "[1]; IL-6 10 ng/ml, then 6-OAP 5 to 10 µM for 12 h", "result": "dramatically reduced"}, {"measurement": "IL-6-induced pJak2 and pStat3", "setting": "[1]; pretreatment 6-OAP for 12 hours, IL-6 10 ng/ml 10 to 30 min", "result": "markedly inhibited IL-6-induced upregulation of pJak2 and pStat3"}, {"measurement": "proliferation of tumor cells", "setting": "[2]", "result": "could inhibit proliferation"}, {"measurement": "phosphorylation of PDK-1", "setting": "[3]", "result": "not affected"}, {"measurement": "IGF-I-induced pAkt expression", "setting": "[4]", "result": "inhibited"}, {"measurement": "IC50", "setting": "[5]", "result": "3.5 to 9.2", "unit": "µM"}]}]}
